Test results reported in patent publication US20260234116A1, “CYTOTOXIC EPOXYKETONE COMPOUNDS, PRECURSORS, COMPOSITIONS, AND METHODS OF USE” (Memorial Sloan-Kettering Cancer Center, priority 2023, published 2026).

Target: EpnF (Streptomyces hygroscopicus, UniProt V5RMU9)
Assay: Enzyme kinetic analysis by SPE-MS/MS assay
Type: biochemical
Conditions: relative to 11n
Protocol: SPE-MS/MS analyses were carried out on an Agilent RapidFire 365 High-Throughput Mass Spectrometry System with 6495 triple quadrupole mass spectrometer. Determination of initial velocity: EpnF stock at 100 μM was diluted 10-fold in EpnF Buffer to a 10 μM working solution, which was further diluted to 8 concentrations (10-0.005 μM) in EpnF Buffer (intermediate volume 1350 μL, concentrations calculated for 1500 μL theoretical final volume corresponding to addition of substrate solutions below). The 8 EpnF enzyme dilutions were aliquoted (90 μL) into the corresponding 8 tubes of PCR tube strips (12 strips, one per time point; Thermo Scientific, AB-2000). The β-ketoacid 11 (20 mM in EtOH) was diluted to 10 μM in EpnF Buffer, then 10 μL of this solution was added to each of the tubes (1 μM final concentration, 100 μL final volume) to initiate the reaction. Samples were incubated in a heated shaker at 37° C. and 225 rpm for up to 120 min, and one tube strip was removed at each time point. Each tube was quenched with 5% formic acid in EpnF Buffer (100 μL), pipetted vigorously, and flash frozen on dry ice. Samples were thawed then centrifuged to precipitate protein and transferred to a conical-bottom 96-well plate (Thermo Scientific/Nunc, 249944) for SPE-MS/MS analysis. Measurement of Km and Vmax: Using the data from the initial velocity experiments above, an appropriate EpnF enzyme concentration was selected for each β-ketoacid 11 at which the rate of conversion to the epoxyketone 12 remained linear at 10 min (0.50 μM for 11n and 0.05 μM for all other substrates). Each substrate (20 mM in EtOH) was diluted to 1 mM in EpnF Buffer, then diluted to 8 concentrations (100-0.5 μM) in EpnF Buffer (intermediate volume 1350 μL, concentrations calculated for 1500 μL theoretical volume corresponding to addition of enzyme solutions below). The 8 substrate dilutions were aliquoted (90 μL) into the corresponding 8 tubes of PCR tube strips (12 strips, one per time point; Thermo Scientific, AB-2000). The EpnF enzyme stock solution was diluted in EpnF Buffer to the appropriate concentration for each substrate, then 10 μL of this solution was added to each of the tubes (100 μL final volume) to initiate the reaction. For the 0-min time point, 5% formic acid in EpnF Buffer was added to the β-ketoacid substrate before addition of the enzyme. Samples were incubated in a heated shaker at 37° C. and 225 rpm for up to 10 min, and one tube strip was removed at each time point. Each tube was quenched by addition of 5% formic acid in EpnF Buffer (100 μL), pipetted vigorously, and flash frozen on dry ice. Samples were thawed then centrifuged to precipitate proteins and the supernatants were transferred to a conical-bottom 96-well plate (Thermo Scientific/Nunc, 249944) for SPE-MS/MS analysis. Km and Vmax values for each substrate were calculated by Michaelis-Menten analysis. To obtain a quantitative assessment of EpnF substrate specificity, we developed a kinetic assay (10 min) using SPE-MS/MS (solid-phase extraction/triple quadrupole mass spectrometry; Agilent RapidFire 365 with 6495 MS) to enable direct detection of both substrates and products.

Chain of EpnF (V5RMU9 entry or part of it): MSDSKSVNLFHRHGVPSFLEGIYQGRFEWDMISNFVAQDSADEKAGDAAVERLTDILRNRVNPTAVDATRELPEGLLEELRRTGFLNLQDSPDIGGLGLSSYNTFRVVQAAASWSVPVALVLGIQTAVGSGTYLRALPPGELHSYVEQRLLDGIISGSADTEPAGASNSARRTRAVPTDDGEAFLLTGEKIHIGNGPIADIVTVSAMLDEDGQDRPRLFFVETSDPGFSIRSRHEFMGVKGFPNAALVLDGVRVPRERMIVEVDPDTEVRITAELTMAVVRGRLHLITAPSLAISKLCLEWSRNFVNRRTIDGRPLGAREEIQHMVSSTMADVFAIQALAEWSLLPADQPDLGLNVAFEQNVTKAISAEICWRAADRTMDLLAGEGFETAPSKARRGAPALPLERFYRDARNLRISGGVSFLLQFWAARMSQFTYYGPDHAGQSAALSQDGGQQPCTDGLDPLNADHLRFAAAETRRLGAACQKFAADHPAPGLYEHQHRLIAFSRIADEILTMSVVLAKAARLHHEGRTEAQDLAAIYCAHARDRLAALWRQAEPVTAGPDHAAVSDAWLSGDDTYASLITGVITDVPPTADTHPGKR

CC(C)CCCCC(=O)N[C@@H](CO)C(=O)N[C@@H](CC(C)C)C(=O)C(C)(C)C(=O)O [Compound 11a, (4S)-4-[(2S)-3-Hydroxy-2-(6-methylheptanamido)propanamido]-2,2,6-trimethyl-3-oxoheptanoic acid]
converted more efficiently than 11n: ≈ 20 fold
